Assay results published in patent publication US20240115496A1, “A COMPOUND DRY POWDER INHALANT AND USE THEREOF” (TIANJIN UNIVERSITY OF TRADITIONAL CHINESE MEDICINE, priority 2021, published 2024).

How the values were obtained:
[1] = Particle size distribution test, laser particle size analyzer, dry dispersion; format: physicochemical
Method: The particle size distribution of DPI dry powder was measured by dry dispersion method using laser particle size analyzer, and Dv10, Dv50, Dv90, VMD (Volume median diameter) and SMD (Sauter mean diameter) were determined, respectively.

[2] = system: rats having Bleo-induced pulmonary fibrosis; assay: Body weight changes in rats; format: in vivo, rat; conditions: days 1-28, compared with Bleo group
Method: (§1) 48 SPF healthy SD male rats (weight of 180-220 g) were randomly divided into 8 groups, 6 rats for each group: (1) normal group (control group): normal rearing in the animal center; (2) sham group: this group was given the same dose of air by pulmonary administration; (3) Bleo model group: 100 μL of Bleo solution with a concentration of 12.5 mg/mL was administered through the tracheal intubation, and the rats were rotated for 5 min after drug administration for use, referred to as the Bleo group or the model group in the present application; (4) Bleo+BA-DPI group: the same modeling method as the Bleo model group was used, and BA-DPI was administered through the tracheal intubation via DP-4 rat dry powder lung drug delivery device (manufacturer: Beijing YSKD Biotechnology Co.) at a dose of 9 mg/kg, 3 mg per day for 28 days; (5) Bleo+AH-DPI group (same method as 4); (6) Bleo+BA/AH-DPI group (same method as 4); (7) Bleo+tail intravenous injection group: the formulation solution was administered by tail intravenous injection at a concentration of 3 mg/ml, 9 mg/kg, for a total of 28 days, starting from the second day after the modeling; (8) Bleo+pirfenidone group: 2 ml per day at a concentration of 11.6 mg/ml was administered by gavage starting from the second day after successful modeling for 28 days. […]

[3] = system: rats having Bleo-induced pulmonary fibrosis; assay: Pulmonary function index assay (EMKA pulmonary function detector); format: in vivo, rat; conditions: day 28, DPI intratracheal or tail i.v. 9 mg/kg, pirfenidone gavage, daily 28 days
Method: 48 SPF healthy SD male rats (weight of 180-220 g) were randomly divided into 8 groups, 6 rats for each group: (1) normal group (control group): normal rearing in the animal center; (2) sham group: this group was given the same dose of air by pulmonary administration; (3) Bleo model group: 100 μL of Bleo solution with a concentration of 12.5 mg/mL was administered through the tracheal intubation, and the rats were rotated for 5 min after drug administration for use, referred to as the Bleo group or the model group in the present application; (4) Bleo+BA-DPI group: the same modeling method as the Bleo model group was used, and BA-DPI was administered through the tracheal intubation via DP-4 rat dry powder lung drug delivery device (manufacturer: Beijing YSKD Biotechnology Co.) at a dose of 9 mg/kg, 3 mg per day for 28 days; (5) Bleo+AH-DPI group (same method as 4); (6) Bleo+BA/AH-DPI group (same method as 4); (7) Bleo+tail intravenous injection group: the formulation solution was administered by tail intravenous injection at a concentration of 3 mg/ml, 9 mg/kg, for a total of 28 days, starting from the second day after the modeling; (8) Bleo+pirfenidone group: 2 ml per day at a concentration of 11.6 mg/ml was administered by gavage starting from the second day after successful modeling for 28 days.
Lung DPI dry powder administration operation: DPI powder was weighed precisely and placed in the storage room of the drug delivery device, the DP4 dry powder delivery device was installed, connected to the syringe with 1.5-2 ml of air, the rat was laid on the tracheal intubation platform after anesthesia, the rat laryngoscope was used to expose the tracheal opening, when the tracheal opening was open, the nozzle of the drug delivery device was immediately inserted through the tracheal opening to the bronchial fork, and the air was immediately pushed into the drug delivery device to push DPI fine powder into the rat's lung. The rat in sham group was pushed with 1.5-2 ml of air (not including the drug) as described above.
Various respiratory indices, including inspiratory duration (Ti), expiratory duration (Te), maximal inspiratory flow (PIF), maximal expiratory flow (PEF), tidal volume (TV), relaxation time (RT), and expiratory volume (EV), in freely moving rats were measured by EMKA pulmonary function detector at the completion of modeling on day 28.

[4] = system: rats having Bleo-induced pulmonary fibrosis; assay: Determination of lung factor in rats; format: in vivo, rat; conditions: Bleo rats after 28 days of treatment, n = 6; Bleo group 9.45, normal 4.09
Method: as §1

[5] = system: rats having Bleo-induced pulmonary fibrosis; assay: HE staining of rat lung tissue; format: in vivo; conditions: Bleo rats after 28 days, compared with Bleo model group
Method: as §1

[6] = system: rats having Bleo-induced pulmonary fibrosis; assay: Total protein in bronchoalveolar lavage fluid (BALF), colorimetric; format: in vivo, rat; conditions: Bleo rats after 28 days of treatment, n = 6; Bleo group 17.04, normal 7.86
Method: as §1

[7] = system: inflammatory factors IL-4, IL-6, IL-8, and IL-1β in BALF; assay: Inflammatory factors in BALF by ELISA; format: in vivo, rat; conditions: Bleo rats after 28 days, compared with Bleo group
Method: as §1
In order to verity whether BA/AH-DPI can regulate the inflammatory process by modulating the secretion of cytokines, the application also measured the concentrations of inflammatory factors IL-4, IL-6, IL-8, and IL-1β in BALF to determine the protective and therapeutic effects of BA/AH-DPI in the pathogenesis of Bleo-induced idiopathic pulmonary fibrosis.
The above BALF supernatant was measured by enzyme-linked immunosorbent assay (ELISA) to detect the concentration levels of inflammatory factors IL-4, IL-6, IL-8, IL-1β, as well as IFN-γ and TGF-β1. […]

[8] = system: rats having Bleo-induced pulmonary fibrosis; assay: Hydroxyproline (Hyp) in lung tissue homogenates by ELISA; format: in vivo, rat; conditions: Bleo rats after 28 days of treatment; Bleo group 118.33, normal 76.43
Method: as §1

[9] = system: SOD, MDA, LDH in rat lung tissue; assay: Oxidative stress indicators (SOD, MDA, LDH) in lung tissue homogenates; format: in vivo; conditions: Bleo rats after 28 days, compared with Bleo group
Method: as §1
Oxidative stress played an important role in the process of Bleo-induced pulmonary fibrosis. […] Therefore, in the application, SOD was measured in conjunction with MDA in order to observe the role in pulmonary fibrosis. […]

MPO = assay: Myeloperoxidase (MPO) level in serum; format: in vivo, rat; conditions: Bleo rats after 28 days, compared with Bleo group
Method: as §1

CC(C)C[C@H](N)C(=O)O [L-leu, L-leucine] gave a D10 [1] of 9.39 μm, a D50 [1] of 50.97 μm and a D90 [1] of 84.70 μm. The “SMD (Sauter mean diameter)” value [1] was 16.64 μm, the “VMD (Volume median diameter)” value [1] was 49.54 μm and the “<3 μm” value ([1]; fraction of particles) was 3.80%. For the same compound, the “<5 μm” value ([1]; fraction of particles) was 6.08%.
In the case of Cc1ccc(=O)n(-c2ccccc2)c1 [pirfenidone, Pirfenidone], the “Body weight of rats” value [2] is reported as “significantly different from that in the Bleo group from day 14”, the “EV (expiratory volume)” value [3] is reported as 1.23 ± 0.30 mL and the “PEF (maximal expiratory flow)” value [3] is reported as 10.76 ± 5.93 mL/s. The “PIF (maximal inspiratory flow)” value [3] was 12.52 ± 4.68 mL/s, the “RT (relaxation time)” value [3] was 158.82 ± 63.19 ms and the “TV (tidal volume)” value [3] was 1.22 ± 0.30 mL. For the same compound, the “Te (expiratory duration)” value [3] was 265.48 ± 99.45 ms, the “Ti (inspiratory duration)” value [3] was 180.56 ± 49.34 ms and the Lung factor [4] was 6.15 ± 0.84. The “Histopathology of lung tissue (HE staining)” value [5] was “less fibrotic features and inflammatory infiltration”, the “Total protein concentration in BALF” value [6] was 10.59 ± 1.47 mg/mL and the “IL-1β level in BALF” value [7] was “significantly lower”. For the same compound, the “IL-4 level in BALF” value [7] was “significantly lower”, the “IL-8 level in BALF” value [7] was “significantly lower” and the “Hyp content in lung tissue” value [8] was 83.40 pg/mL. For the same compound, the “LDH content in lung tissue” value [9] was “significantly decreased”, the “MDA level in lung tissue” value [9] was “significantly decreased” and the “SOD antioxidant index in lung tissue” value [9] was “significantly increased”. The “MPO activity in serum” value (MPO) was “significantly inhibited MPO activity”.
